For series [1], the system named is CYP1A1. Particulars: read-out: IC50 CYP1A1 enzyme activity; cited from earlier work.
Series [2] deals with T1, CYP1A2 (Homo sapiens, UniProt P05177).
T1 sequence (P05177 1-516): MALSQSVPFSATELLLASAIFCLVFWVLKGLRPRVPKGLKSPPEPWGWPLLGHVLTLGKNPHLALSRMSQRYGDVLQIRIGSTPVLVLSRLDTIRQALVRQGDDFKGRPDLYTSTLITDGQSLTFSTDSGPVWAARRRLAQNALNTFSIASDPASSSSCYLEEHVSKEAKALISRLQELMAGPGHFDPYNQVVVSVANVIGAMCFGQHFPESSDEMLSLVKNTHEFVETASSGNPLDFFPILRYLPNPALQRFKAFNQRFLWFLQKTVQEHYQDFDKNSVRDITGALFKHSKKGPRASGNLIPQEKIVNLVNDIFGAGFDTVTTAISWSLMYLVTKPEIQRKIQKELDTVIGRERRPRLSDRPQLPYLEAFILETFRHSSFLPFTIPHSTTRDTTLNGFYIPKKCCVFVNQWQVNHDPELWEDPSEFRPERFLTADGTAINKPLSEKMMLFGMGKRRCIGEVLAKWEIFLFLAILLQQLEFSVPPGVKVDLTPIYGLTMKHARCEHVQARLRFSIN
As to the kind of experiment: Vivid CYP1A2 blue screening kit inhibition assay. Particulars: 3.125–200 μM; for effect on CYP1A2 activity (in words): in vitro. The procedure: (§1) Human CYP1A2 and CYP3A4 activities were determined using the Vivid™ CYP1A2 blue screening kit and Vivid™ CYP3A4 red screening kit according to the manufacturer’s instructions. For the CYP1A2 and CYP3A4 inhibition assay, different concentrations (3.125–200 μM) of test compounds or inhibitors were mixed with a master pre-mix comprising of CYP450 BACULOSOMES® reagent and regeneration system which contained glucose-6-phosphate and glucose-6-phosphate dehydrogenase. The mixture was incubated at room temperature for 10 min. Following incubation, each CYP enzyme-specific substrate (Vivid EOMCC for CYP1A2 and Vivid BOMR for CYP3A4) and NADP^+ were added to start the reaction. The plate was immediately transferred into the fluorescent plate reader and read in 1 min intervals for 60 min at Ex 415 nm/Em 460 nm (CYP1A2) and Ex 550 nm/Em 590 nm (CYP3A4), respectively. […] The plots were made with Graph-Pad Prism software (Graph-Pad, San Diego, CA, USA).

For series [3], the target named is human recombinant CYP3A4 (Homo sapiens, UniProt P08684). Put plainly: Vivid CYP3A4 red screening kit inhibition assay. Here is the method: as §1
For series [4], the system named is CYP3A4. The conditions noted are these: read-out: IC50 CYP3A4 enzyme activity; cited from earlier work.
Series [5] relates to CYP1A2. Particulars: read-out: IC50 CYP1A2 enzyme activity; cited from earlier work.
The subject of series [6] is CYP1A1. Details: method as in PMID 31655123. Particulars: cited from earlier work.
In series [7] the test system is CYP1A2. The conditions noted are these: cited from earlier work.
Series [8] has as its system CYP2E1. Particulars: cited from earlier work.
In series [9] the test system is CYP3A4. Particulars: cited from earlier work.
Series [10] has as its system CYP2C19. Particulars: cited from earlier work.
Series [11] deals with CYP2D6. The conditions noted are these: cited from earlier work.
The mark [12] stands for this setting: CYP1A2 In Vitro IC50, CYP1A2 BACULOSOMES, substrate Vivid EOMCC, n.i. = no inhibition.

“And” between values parts separate entries of the source, which are not always exact repeats. Identical values can stand only once. Like-named read-outs stand apart in the source and are kept apart here.

The values below come from article PMC7760626, “Screening of Human CYP1A2 and CYP3A4 Inhibitors from Seaweed In Silico and In Vitro” (Marine Drugs, 2020).

Sequence of human recombinant CYP3A4 (P08684 whole entry): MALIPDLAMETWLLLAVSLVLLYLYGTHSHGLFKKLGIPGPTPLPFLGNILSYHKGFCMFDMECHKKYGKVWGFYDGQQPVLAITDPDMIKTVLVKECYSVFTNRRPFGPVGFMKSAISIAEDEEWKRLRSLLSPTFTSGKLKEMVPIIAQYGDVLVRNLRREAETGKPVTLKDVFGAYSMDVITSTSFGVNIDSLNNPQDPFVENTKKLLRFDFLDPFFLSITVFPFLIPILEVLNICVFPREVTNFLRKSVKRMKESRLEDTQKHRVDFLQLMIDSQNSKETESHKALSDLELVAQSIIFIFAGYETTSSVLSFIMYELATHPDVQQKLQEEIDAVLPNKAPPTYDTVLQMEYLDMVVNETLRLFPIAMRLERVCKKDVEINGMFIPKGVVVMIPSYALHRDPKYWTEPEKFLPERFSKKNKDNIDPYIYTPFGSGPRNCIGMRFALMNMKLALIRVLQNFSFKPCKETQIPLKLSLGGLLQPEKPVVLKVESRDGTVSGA

On to `CC(=O)O[C@H]1CC(C)(C)C(=C=C/C(C)=C/C=C/C(C)=C/C=C/C=C(C)/C=C/C=C(\C)C(=O)C[C@@]23O[C@]2(C)C[C@@H](O)CC3(C)C)[C@](C)(O)C1` [Fucoxanthin, fucoxanthin], for which the IC50 was 12.5 µM in series [1]; 30.3 µM in series [2] (setting [12]); 24.4 µM in series [3] (CYP3A4 In Vitro IC50, CYP3A4 BACULOSOMES, substrate Vivid BOMR, 3.125–200 μM, n.i. = no inhibition); 11 µM in [4]; 49 µM in series [5]. Also, the IC50 at 60 min in series [2] (human, recombinant human CYP1A2 (CYP450 BACULOSOMES reagent), probe Vivid EOMCC, CYP1A2 In Vitro IC50, CYP1A2 BACULOSOMES, substrate Vivid EOMCC, n.i. = no inhibition) is 30.2 µM.

Consider `COc1ccc([C@@H]2CC(=O)c3c(O)cc(O[C@@H]4O[C@H](CO[C@@H]5O[C@@H](C)[C@H](O)[C@@H](O)[C@H]5O)[C@@H](O)[C@H](O)[C@H]4O)cc3O2)cc1O` [Hesperidin, hesperidin], for which the “effect on CYP1A2 activity (in words)” value is “did not show any significant effect” in [2] and “no significant inhibitory effect” in series [2] (listed as HSP). Further, the “effect on CYP3A4 activity (in words)” value in series [3] (in vitro, at high concentrations) was “slightly inhibited”.

As to `O=c1c(O)c(-c2ccc(O)cc2O)oc2cc(O)cc(O)c12` [Morin, morin hydrate], the IC50 in series [2] (setting [12]) is 41.8 µM and 41.9 µM; in series [6], 126 µM.

Consider `O=c1c(O)c(-c2ccc(O)c(O)c2)oc2cc(O)cc(O)c12` [Quercetin, quercetin], for which the “effect on CYP1A2 (in words)” value in series [7] is listed as “did not show any significant effect”. For the same molecule, the “effect on CYP2E1 (in words)” value in [8] was “did not show any significant effect”. The “inhibitory effect against CYP3A4 (in words)” value in series [9] was “moderate effect”. Moreover, in [10], the “inhibitory effect against CYP2C19 (in words)” value is reported as “moderate effect”. Moreover, in series [11], the “inhibitory effect against CYP2D6 (in words)” value is recorded as “strong inhibitory effect”.
